# Experimental data published in patent US7910109B2, “MHC class II epitopes of 5T4 antigen” (Oxford Biomedica (UK) Ltd., priority 2002, dated 2011).
# Key:
# [1] = test system: PBMCs from breast cancer patient OBCR25; assay: proliferation assay (3H-thymidine) with h5T4 class II peptide pools and peptides; format: cell-based, human; settings: PBMCs of breast cancer patient OBCR25, 6 days incubation, 3H-thymidine pulse overnight
# Description: FIG. 1 is a schematic diagram illustrating the proliferation assay for measuring cellular responses
# A h5T4 peptide library was produced consisting of 51 20 mer peptides overlapping by […]. Class II peptide pools containing 5 peptides per pool were incubated with PBMCs from breast cancer patients OBCR24 and OBCR25 and proliferation was measures using the assay illustrated in FIG. 1. After 6 days incubation, cells were pulsed overnight with ^3H-thymidine and incubated overnight at 37° C.
# PBMCs from OBCR25 = assay: IFNγ ELISPOT assay after restimulation in vitro with h5T4 peptides; format: cell-based, human; settings: PBMCs from OBCR25 restimulated in vitro with h5T4 peptides
# Description: FIG. 2 is a schematic diagram illustrating the ELISPOT assay for measuring antigen-specific IFNγ production.
# To measure antigen-specific IFNγ production, an ELISPOT assay was conducted following the general scheme illustrated in FIG. 2.
sequence,measurement,setting,value
"YRYEINADPRLTNLSSNSDV (listed as Homo sapiens) [peptide #51, extreme C-terminal 20 amino acids (401-420) of h5T4; 20 mer peptide of pool #10]",proliferative response,[1],positive response
same,IFNγ ELISPOT response,PBMCs from OBCR25,positive ELISPOT response
